Laboratory results: ChEMBL document CHEMBL4406807, “Discovery of 3,4,6-Trisubstituted Piperidine Derivatives as Orally Active, Low hERG Blocking Akt Inhibitors via Conformational Restriction and Structure-Based Design” (J Med Chem, 2019)

Key:
[1] = Cmax in Sprague-Dawley rat at 40 mg/kg, ig measured up to 24 hrs by LC-MS/MS analysis; type: ADME, organism-based; parameters: dose 40 mg/kg, route […]; conditions: in vivo, po
OVCAR-8 = experiment: Antiproliferative activity against human OVCAR8 cells; type: functional, cell-based
[2] = Clearance in Sprague-Dawley rat at 40 mg/kg, ig measured up to 24 hrs by LC-MS/MS analysis; type: ADME, organism-based; conditions: in vivo, po
[3] = Toxicity in ICR mouse assessed as effect on biochemical parameter at 80 to 160 mg/kg, ig; type: organism-based; conditions: in vivo, po
[4] = target: T1, Serine/threonine-protein kinase Sgk1 (Homo sapiens, UniProt O00141); experiment: Inhibition of human SGK by mobility shift assay
T1 sequence (O00141 whole entry): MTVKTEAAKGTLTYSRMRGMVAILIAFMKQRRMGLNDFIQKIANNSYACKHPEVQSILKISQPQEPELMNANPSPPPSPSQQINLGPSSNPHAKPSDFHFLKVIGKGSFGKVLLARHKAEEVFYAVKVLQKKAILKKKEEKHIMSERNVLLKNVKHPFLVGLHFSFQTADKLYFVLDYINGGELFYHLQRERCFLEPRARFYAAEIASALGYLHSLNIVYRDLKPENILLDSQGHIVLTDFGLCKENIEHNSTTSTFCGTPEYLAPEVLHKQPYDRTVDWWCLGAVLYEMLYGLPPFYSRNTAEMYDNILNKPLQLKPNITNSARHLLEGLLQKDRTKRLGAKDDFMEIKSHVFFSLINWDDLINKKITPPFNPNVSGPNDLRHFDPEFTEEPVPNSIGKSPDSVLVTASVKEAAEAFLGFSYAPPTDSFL

[5] = Drug level in tumor of human SKOV3 cells xenografted in BALB/c nude mouse at 50 mg/kg administered for 7 consecutive days; type: ADME, organism-based, Neoplasm; conditions: in vivo
[6] = target: Rho-associated protein kinase 1 (Homo sapiens, UniProt Q13464); experiment: Inhibition of human ROCK1 by mobile shift assay
Rho-associated protein kinase 1, sequence (Q13464 whole entry): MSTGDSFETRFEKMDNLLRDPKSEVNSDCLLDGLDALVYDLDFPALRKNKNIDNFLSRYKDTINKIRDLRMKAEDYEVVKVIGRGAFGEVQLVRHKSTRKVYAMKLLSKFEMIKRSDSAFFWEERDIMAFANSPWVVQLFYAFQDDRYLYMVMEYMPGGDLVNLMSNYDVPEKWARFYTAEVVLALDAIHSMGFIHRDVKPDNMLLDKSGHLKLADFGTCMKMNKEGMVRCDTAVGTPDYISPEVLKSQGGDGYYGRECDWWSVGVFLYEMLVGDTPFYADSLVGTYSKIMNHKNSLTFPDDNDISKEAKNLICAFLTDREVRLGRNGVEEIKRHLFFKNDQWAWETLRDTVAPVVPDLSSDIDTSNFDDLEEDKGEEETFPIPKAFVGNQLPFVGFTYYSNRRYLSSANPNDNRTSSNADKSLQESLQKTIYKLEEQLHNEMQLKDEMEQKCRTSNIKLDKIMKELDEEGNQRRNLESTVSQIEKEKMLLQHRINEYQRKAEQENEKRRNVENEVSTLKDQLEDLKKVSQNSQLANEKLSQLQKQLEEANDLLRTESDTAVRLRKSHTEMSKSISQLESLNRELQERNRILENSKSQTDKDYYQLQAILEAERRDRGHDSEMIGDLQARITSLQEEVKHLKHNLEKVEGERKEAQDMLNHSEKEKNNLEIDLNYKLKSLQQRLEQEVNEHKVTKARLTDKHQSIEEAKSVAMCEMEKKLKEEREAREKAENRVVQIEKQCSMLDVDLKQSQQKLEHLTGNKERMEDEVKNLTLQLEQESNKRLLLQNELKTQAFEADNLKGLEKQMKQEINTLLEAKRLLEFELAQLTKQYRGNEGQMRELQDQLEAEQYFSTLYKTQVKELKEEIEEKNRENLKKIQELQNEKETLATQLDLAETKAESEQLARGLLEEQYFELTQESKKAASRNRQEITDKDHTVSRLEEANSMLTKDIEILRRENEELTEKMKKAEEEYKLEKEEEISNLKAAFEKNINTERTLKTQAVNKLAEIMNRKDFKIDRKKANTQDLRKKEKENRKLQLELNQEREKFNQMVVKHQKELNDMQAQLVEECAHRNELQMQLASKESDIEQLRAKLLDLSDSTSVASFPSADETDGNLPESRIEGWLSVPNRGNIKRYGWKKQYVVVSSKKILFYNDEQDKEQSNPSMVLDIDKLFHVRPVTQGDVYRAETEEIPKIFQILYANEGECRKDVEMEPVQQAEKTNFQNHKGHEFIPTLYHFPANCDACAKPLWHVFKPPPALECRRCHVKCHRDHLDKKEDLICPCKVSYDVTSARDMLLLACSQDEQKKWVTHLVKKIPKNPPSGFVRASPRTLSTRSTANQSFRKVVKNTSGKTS

[7] = target: Potassium voltage-gated channel subfamily A member 2 (Homo sapiens, UniProt P16389); experiment: Inhibition of Kv1.2 (unknown origin) at 3 uM relative to control
Potassium voltage-gated channel subfamily A member 2, sequence (P16389 whole entry): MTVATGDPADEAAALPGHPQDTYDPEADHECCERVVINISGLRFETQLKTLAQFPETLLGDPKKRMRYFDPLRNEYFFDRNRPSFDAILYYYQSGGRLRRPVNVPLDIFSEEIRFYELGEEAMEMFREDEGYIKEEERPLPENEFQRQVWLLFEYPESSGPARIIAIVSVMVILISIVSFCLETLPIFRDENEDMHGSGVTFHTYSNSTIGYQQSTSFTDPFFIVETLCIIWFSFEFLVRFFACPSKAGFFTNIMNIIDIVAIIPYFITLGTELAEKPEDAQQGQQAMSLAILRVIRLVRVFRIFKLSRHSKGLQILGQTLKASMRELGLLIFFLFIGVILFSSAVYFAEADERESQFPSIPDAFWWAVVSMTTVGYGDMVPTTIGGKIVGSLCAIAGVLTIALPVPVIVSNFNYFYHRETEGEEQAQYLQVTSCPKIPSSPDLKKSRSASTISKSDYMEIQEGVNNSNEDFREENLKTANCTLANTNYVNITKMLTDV

[8] = Toxicity in BALB/c nude mouse xenografted with human SKOV3 cells assessed as reduction in mouse survival at 40 mg/kg, po BID for 21 days; type: organism-based; conditions: in vivo, 504 h
[9] = target: Potassium voltage-gated channel subfamily A member 7 (Homo sapiens, UniProt Q96RP8); experiment: Inhibition of Kv1.7 (unknown origin) at 3 uM relative to control
Potassium voltage-gated channel subfamily A member 7, sequence (Q96RP8 whole entry): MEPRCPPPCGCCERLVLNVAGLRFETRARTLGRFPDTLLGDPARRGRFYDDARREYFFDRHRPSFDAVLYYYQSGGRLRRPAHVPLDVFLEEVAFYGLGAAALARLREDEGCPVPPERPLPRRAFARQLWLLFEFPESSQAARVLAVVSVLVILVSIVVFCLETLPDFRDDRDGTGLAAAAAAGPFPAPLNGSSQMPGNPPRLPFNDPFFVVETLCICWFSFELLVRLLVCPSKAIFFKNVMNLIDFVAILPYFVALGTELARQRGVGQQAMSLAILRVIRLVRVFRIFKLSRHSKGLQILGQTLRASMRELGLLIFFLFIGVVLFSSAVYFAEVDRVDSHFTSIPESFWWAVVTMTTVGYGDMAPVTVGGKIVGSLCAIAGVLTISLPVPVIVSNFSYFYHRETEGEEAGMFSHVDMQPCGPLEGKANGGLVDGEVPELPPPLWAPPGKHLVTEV

[10] = target: ATP-sensitive inward rectifier potassium channel 1 (Homo sapiens, UniProt P48048); experiment: Inhibition of Kir1.1 (unknown origin) at 3 uM relative to control
ATP-sensitive inward rectifier potassium channel 1, sequence (P48048 whole entry): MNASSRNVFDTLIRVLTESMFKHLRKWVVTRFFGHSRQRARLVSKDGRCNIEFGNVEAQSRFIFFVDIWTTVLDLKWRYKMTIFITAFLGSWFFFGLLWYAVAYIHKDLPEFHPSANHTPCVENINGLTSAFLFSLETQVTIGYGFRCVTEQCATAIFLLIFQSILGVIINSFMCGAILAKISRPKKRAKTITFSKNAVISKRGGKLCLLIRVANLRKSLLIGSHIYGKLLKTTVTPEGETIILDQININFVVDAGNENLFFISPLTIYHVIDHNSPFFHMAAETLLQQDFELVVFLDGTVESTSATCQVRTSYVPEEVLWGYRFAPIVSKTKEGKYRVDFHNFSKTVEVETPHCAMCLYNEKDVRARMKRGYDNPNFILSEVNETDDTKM

[11] = Clearance in ICR mouse at 40 mg/kg, ig measured up to 48 hrs by LC-MS/MS analysis; type: ADME, organism-based; conditions: in vivo, po
[12] = target: Ribosomal protein S6 kinase beta-1 (Homo sapiens, UniProt P23443); experiment: Inhibition of human P70S6K by mobility shift assay
Ribosomal protein S6 kinase beta-1, sequence (P23443 whole entry): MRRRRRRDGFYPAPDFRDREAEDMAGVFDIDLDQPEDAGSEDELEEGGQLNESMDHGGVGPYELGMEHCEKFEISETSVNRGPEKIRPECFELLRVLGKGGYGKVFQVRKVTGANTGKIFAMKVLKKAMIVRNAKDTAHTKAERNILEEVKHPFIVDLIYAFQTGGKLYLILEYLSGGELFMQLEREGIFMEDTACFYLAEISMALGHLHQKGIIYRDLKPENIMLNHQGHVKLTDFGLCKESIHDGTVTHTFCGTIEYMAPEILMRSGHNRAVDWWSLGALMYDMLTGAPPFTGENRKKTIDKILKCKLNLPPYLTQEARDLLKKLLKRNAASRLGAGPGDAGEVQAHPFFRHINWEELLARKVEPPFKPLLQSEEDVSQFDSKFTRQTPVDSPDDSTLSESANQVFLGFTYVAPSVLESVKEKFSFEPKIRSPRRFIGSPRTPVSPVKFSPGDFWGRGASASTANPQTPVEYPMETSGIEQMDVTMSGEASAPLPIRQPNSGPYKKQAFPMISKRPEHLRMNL

HCT-116 = experiment: cells; conditions: Homo sapiens, HCT-116, 72 h
hERG (KCNH2) = hERG (KCNH2) (Homo sapiens, UniProt Q12809); experiment: Inhibition of ERG in human HEK293 cells at 3 uM at -80 mV holding potential by whole-cell patch clamp assay relative to control; type: cell-based; conditions: HEK293 cells expressing ERG
[13] = target: Potassium/sodium hyperpolarization-activated cyclic nucleotide-gated channel 4 (Homo sapiens, UniProt Q9Y3Q4); experiment: Inhibition of HCN4 (unknown origin) at 3 uM relative to control
Potassium/sodium hyperpolarization-activated cyclic nucleotide-gated channel 4, sequence (Q9Y3Q4 whole entry): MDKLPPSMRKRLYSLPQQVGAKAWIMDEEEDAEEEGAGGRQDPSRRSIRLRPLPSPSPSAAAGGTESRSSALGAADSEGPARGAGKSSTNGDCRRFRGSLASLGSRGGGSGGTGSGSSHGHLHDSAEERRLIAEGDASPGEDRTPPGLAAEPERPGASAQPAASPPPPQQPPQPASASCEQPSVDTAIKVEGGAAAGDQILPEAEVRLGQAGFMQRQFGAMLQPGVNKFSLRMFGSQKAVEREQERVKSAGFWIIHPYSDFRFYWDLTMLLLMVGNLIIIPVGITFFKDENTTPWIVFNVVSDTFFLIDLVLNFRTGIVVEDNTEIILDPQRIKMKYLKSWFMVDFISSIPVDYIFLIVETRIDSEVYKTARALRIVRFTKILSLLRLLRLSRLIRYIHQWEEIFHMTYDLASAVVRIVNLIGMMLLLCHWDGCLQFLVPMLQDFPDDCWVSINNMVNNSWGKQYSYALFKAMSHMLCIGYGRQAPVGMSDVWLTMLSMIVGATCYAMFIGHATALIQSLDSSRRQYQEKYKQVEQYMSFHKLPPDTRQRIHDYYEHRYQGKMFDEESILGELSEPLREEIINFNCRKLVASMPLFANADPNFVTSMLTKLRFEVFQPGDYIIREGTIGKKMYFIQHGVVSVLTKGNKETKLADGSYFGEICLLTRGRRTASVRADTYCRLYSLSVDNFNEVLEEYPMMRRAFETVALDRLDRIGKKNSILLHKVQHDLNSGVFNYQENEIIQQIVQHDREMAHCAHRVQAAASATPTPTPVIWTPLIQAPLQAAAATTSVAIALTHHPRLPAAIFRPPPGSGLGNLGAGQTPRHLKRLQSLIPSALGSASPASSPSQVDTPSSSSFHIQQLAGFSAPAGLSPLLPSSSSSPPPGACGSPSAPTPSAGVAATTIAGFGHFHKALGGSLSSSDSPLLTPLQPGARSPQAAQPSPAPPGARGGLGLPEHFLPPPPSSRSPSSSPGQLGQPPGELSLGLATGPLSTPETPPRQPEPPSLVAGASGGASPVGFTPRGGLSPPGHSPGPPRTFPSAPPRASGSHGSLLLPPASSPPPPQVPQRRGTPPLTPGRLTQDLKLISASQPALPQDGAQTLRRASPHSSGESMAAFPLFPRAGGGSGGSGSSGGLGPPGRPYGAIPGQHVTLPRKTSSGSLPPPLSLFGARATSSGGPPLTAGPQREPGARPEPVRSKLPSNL

[14] = MRT (0 to t) in ICR mouse at 40 mg/kg, ig measured up to 48 hrs by LC-MS/MS analysis; type: ADME, organism-based; conditions: in vivo, po
Protein kinase C (PKC) = experiment: Inhibition of PKC (unknown origin); type: protein assay, Homo sapiens
[15] = Microsomal stability in dog liver microsomes assessed as compound remaining at 100 ug/ml in presence of NADPH measured at 1.5 hrs by LC/MS analysis; type: ADME, Canis lupus familiaris, Microsome; conditions: read-out: Stability
[16] = Toxicity in ICR mouse assessed as effect on body weight at 80 to 160 mg/kg, ig administered once daily for 7 days; type: organism-based; conditions: in vivo, po, 168 h
SK-OV-3 [17] = experiment: Induction of apoptosis in human SKOV3 cells at 0.4 uM by FACS based flow cytometric analysis (reference value: 7.63%); type: functional
[18] = Toxicity in ICR mouse assessed as effect on serum hematology at 80 to 160 mg/kg, ig; type: organism-based; conditions: in vivo, po
[19] = target: Potassium voltage-gated channel subfamily A member 3 (Homo sapiens, UniProt P22001); experiment: Inhibition of Kv1.3 (unknown origin) at 3 uM relative to control
[20] = target: Ribosomal protein S6 kinase alpha-1 (Homo sapiens, UniProt Q15418); experiment: Inhibition of RSK1 (unknown origin) by mobility shift assay
[21] = Half-life in Sprague-Dawley rat at 40 mg/kg, ig measured up to 24 hrs by LC-MS/MS analysis; type: ADME, organism-based; conditions: in vivo, po
[22] = Stability in mouse plasma at 100 ug/ml after 1 hr by LC/MS analysis; type: ADME, cell-free; conditions: read-out: Stability
[23] = target: Potassium voltage-gated channel subfamily A member 5 (Homo sapiens, UniProt P22460); experiment: Inhibition of Kv1.5 (unknown origin) at 3 uM relative to control
Potassium voltage-gated channel subfamily A member 5, sequence (P22460 whole entry): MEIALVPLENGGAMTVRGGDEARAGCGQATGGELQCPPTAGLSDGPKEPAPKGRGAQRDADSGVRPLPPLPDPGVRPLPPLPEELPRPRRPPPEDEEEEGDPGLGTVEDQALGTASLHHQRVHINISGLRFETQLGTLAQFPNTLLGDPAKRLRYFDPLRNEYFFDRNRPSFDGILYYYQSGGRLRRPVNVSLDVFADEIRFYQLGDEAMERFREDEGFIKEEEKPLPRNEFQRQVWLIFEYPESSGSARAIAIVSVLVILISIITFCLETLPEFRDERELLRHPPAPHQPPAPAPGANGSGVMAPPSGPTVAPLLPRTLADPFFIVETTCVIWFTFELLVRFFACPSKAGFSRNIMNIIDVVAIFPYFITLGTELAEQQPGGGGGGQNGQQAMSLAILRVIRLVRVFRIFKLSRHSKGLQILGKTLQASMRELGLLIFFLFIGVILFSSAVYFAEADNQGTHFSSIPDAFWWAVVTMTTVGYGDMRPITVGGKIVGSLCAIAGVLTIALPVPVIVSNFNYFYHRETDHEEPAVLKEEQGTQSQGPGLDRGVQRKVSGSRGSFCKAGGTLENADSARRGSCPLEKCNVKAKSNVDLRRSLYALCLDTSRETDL

[24] = Half-life in ICR mouse at 40 mg/kg, ig measured up to 48 hrs by LC-MS/MS analysis; type: ADME, organism-based; conditions: in vivo, po
[25] = MRT (0 to infinity) in ICR mouse at 40 mg/kg, ig measured up to 48 hrs by LC-MS/MS analysis; type: ADME, organism-based; conditions: in vivo, po
[26] = Microsomal stability in monkey liver microsomes assessed as compound remaining at 100 ug/ml in presence of NADPH measured at 1.5 hrs by LC/MS analysis; type: ADME, Macaca mulatta, Microsome; conditions: rhesus monkey, read-out: Stability
SK-OV-3 [27] = experiment: Induction of apoptosis in human SKOV3 cells at 2 uM by FACS based flow cytometric analysis (reference value: 7.63%); type: functional

## CNC(=O)C[C@@H]1C[C@@H](c2ccc(F)c(F)c2)[C@H](NC(=O)c2cc(-c3c(Cl)cnn3C)c(Cl)o2)CN1
[1]
  Cmax: 407 ng/mL
OVCAR-8
  IC50: 800 nM
[2]
  CL/F: 237 mL/min/kg
[3]
  Activity: Non-Toxic
[4]
  IC50: 145 nM
[5]
  Drug uptake: 560 ng/mL
[6]
  IC50: 64 nM
[7]
  inhibition (INH): Not Active
[8]
  Activity: Non-Toxic
[9]
  inhibition (INH): Not Active
[10]
  inhibition (INH): Not Active
[11]
  CL/F: 31.7 mL/min/kg
[12]
  IC50: 8.9 nM
HCT-116
  IC50: 1100 nM
hERG (KCNH2)
  inhibition at 3 µM: 4%
[13]
  inhibition (INH): Not Active
[14]
  MRT last at 48 h: 5.2 h
Protein kinase C (PKC)
  IC50: 94 nM
[15]
  remaining at 1.5 h, 100 ug/ml: 96%
[16]
  Activity: Non-Toxic
SK-OV-3 [17]
  Activity: 39.88%
[18]
  Activity: Non-Toxic
[19]
  inhibition (INH): Not Active
[20]
  IC50: 131 nM
[21]
  half-life: 6.4 h
[22]
  remaining at 1 h, 100 ug/ml: > 99%
[23]
  inhibition (INH): Not Active
[24]
  half-life: 3.3 h
[25]
  MRT inf: 5.3 h
[26]
  remaining at 1.5 h, 100 ug/ml: 84%
SK-OV-3 [27]
  Activity: 64.22%
